Calls of active or inactive are those of the source. The calls are words filed in the database; no cut-off is given here.

Series [1] relates to L6. Put plainly: Cytotoxicity against rat L6 cells assessed as reduction in cell viability at 25 uM after 4 hrs by MTT assay. The conditions noted are these: l6, 4 h. In kind it is cell-based. (Tetrazolium assays rely on reduction of a dye to a coloured formazan, in cell work by metabolically active cells.)
Series [2] relates to L6. Kind of series: Increase in glucose uptake in rat L6 cells at 25 uM after 4 hrs relative to control. In kind it is functional.
The subject of series [3] is L6. Put plainly: Activation of AMPK in rat L6 cells assessed as ACC phosphorylation at Ser 79 residues at 25 uM by Western blot analysis. In kind it is cell-based. For orientation: Immunoblotting shows a protein as a band on a membrane.
Series [4] deals with L6. Kind of series: Cytotoxicity against rat L6 cells assessed as reduction in cell viability at 1 to 100 uM after 4 hrs by MTT assay. In kind it is cell-based. The conditions noted are these: l6, 4 h.
Series [5] deals with L6. Put plainly: Increase in glucose uptake in rat L6 cells at 25 uM treated for 4 hrs post 15 mins PI3K inhibitor wortmanin treatment. In kind it is functional, cell-based.
The test system of series [6] is L6. Put plainly: Activation of PI3K/AKT/AMPK in rat L6 cells transfected with mOrange dye-based IRAP assessed as increase in GLUT4 translocation at 25 uM measured every 5 mins for 30 mins by confocal microscopic analysis relative to basal control. In kind it is cell-based.
The target in series [7] is RAC-alpha serine/threonine-protein kinase (Rattus norvegicus) (UniProt P47196). Put plainly: Induction of AKT phosphorylation at Ser 473 residues in rat L6 cells by Western blot analysis. In kind it is cell-based.
RAC-alpha serine/threonine-protein kinase (Rattus norvegicus), sequence (P47196 whole entry): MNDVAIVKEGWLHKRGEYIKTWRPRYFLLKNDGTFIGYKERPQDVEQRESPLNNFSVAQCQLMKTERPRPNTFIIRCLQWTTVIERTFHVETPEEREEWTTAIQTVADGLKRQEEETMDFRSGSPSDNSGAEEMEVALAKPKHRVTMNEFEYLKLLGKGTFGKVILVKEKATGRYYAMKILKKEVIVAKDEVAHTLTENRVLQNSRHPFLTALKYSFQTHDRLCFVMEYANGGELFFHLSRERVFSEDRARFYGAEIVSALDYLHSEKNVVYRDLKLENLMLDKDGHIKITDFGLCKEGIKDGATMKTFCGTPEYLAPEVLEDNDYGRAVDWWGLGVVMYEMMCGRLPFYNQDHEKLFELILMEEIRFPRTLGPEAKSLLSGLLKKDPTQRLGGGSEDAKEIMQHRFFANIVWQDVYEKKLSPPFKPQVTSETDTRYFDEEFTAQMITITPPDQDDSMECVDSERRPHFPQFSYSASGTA
Series [8] concerns L6. Kind of series: Activation of PI3K/AKT/AMPK in rat L6 cells transfected with mOrange dye-based IRAP assessed as increase in GLUT4 translocation at 25 uM measured every 5 mins for 30 mins post 30 mins AMPK inhibitor compound C treatment by confocal microscopic analysis. In kind it is cell-based.
The target of series [9] is RAC-alpha serine/threonine-protein kinase (Rattus norvegicus) (UniProt P47196). Kind of series: Activation of AKT in rat L6 cells assessed as GSK3beta phosphorylation at Ser 9 residues at 12.5 to 25 uM by Western blot analysis. In kind it is cell-based.
Series [10] has as its system L6. Put plainly: Increase in glucose uptake in rat L6 cells at 10 to 25 uM after 4 hrs. In kind it is functional, cell-based.
Series [11] deals with L6. Kind of series: Increase in glucose uptake in rat L6 cells at 25 to 100 uM after 4 hrs. In kind it is functional, cell-based.
The subject of series [12] is L6. Kind of series: Increase in glucose uptake in rat L6 cells at <10 uM after 4 hrs. In kind it is functional, cell-based.
In series [13] the test system is L6. Kind of series: Activation of PI3K/AKT/AMPK in rat L6 cells transfected with mOrange dye-based IRAP assessed as increase in GLUT4 translocation at 25 uM measured every 5 mins for 30 mins post 15 mins PI3K inhibitor wortmanin treatment by confocal microscopic analysis. In kind it is cell-based.
Series [14] deals with RAC-alpha serine/threonine-protein kinase (Rattus norvegicus) (UniProt P47196). Kind of series: Induction of AKT phosphorylation at Ser 473 residues in rat L6 cells at 12.5 to 25 uM by Western blot analysis. In kind it is cell-based.
Series [15] relates to L6. Put plainly: Increase in glucose uptake in rat L6 cells at 25 uM after 2 to 4 hrs. In kind it is functional, cell-based.
Series [16] deals with L6. Kind of series: Induction of AMPK phosphorylation at […] residues in rat L6 cells at 25 uM by Western blot analysis. In kind it is cell-based.
Series [17] concerns L6. Kind of series: Increase in glucose uptake in rat L6 cells at 25 uM treated for 4 hrs post 30 mins AMPK inhibitor compound C treatment. In kind it is functional, cell-based.
For series [18], the system named is L6. Kind of series: Increase in glucose uptake in rat L6 cells at 2 mM after 4 hrs relative to control. In kind it is functional.
The test system of series [19] is L6. Put plainly: Increase in glucose uptake in rat L6 cells at 2 mM treated for 4 hrs post 30 mins AMPK inhibitor compound C treatment. In kind it is functional, cell-based.
Series [20] relates to L6. Kind of series: Induction of AMPK phosphorylation at […] residues in rat L6 cells at 12.5 to 25 uM by Western blot analysis. In kind it is cell-based.
In series [21] the test system is L6. Kind of series: Activation of AMPK phosphorylation in rat L6 cells assessed as ACC phosphorylation at Ser 79 residues at 12.5 to 25 uM by Western blot analysis. In kind it is cell-based.
The subject of series [22] is L6. Kind of series: Increase in glucose uptake in rat L6 cells at 100 uM after 4 hrs. In kind it is functional, cell-based.

Take `CC(C)=CCc1c(O)c(O)c2oc3c(CC=C(C)C)c(O)cc(O)c3c(=O)c2c1CCC(C)(C)O`: the Activity entry in series [1] is reported as “Non-Toxic”.

With `CC(C)=CCC/C(C)=C/Cc1c(O)cc2c(c1O)C(=O)Oc1c(CC=C(C)C)cc(O)c(O)c1O2`, in series [1], the Activity result was “Non-Toxic”.

On to `CC(C)=CCC/C(C)=C/Cc1c(O)c(O)c2oc3cc(O)cc(O)c3c(=O)c2c1CCC(C)(C)O`, for which the Activity result in [1] is “Non-Toxic”.

In the case of `CC1(C)C=Cc2c(c(O)c3oc4c(O)ccc(O)c4c(=O)c3c2O)O1`, the outcome in series [2] was inactive. The Activity entry in series [1] was “Non-Toxic”.

On to `COc1c2c(c(O)c3c(=O)c4c(O)ccc(O)c4oc13)C=CC(C)(C)O2`, for which, in series [1], the Activity result is “Non-Toxic”.

`CC(C)=CCc1c(O)c(O)c2oc3c4c(cc(O)c3c(=O)c2c1CC=C(C)C)OC(C)(C)C=C4`: the values for the Activity in series [2] and in [1] were 195.28% and “Non-Toxic”, respectively.

`CC1(C)C=Cc2c(c(O)c3oc4ccc(O)cc4c(=O)c3c2O)O1`: in series [1], the Activity entry is given as “Non-Toxic”.

Turning to `COc1cc(O)c2c(=O)c3cccc(O)c3oc2c1`, the Activity result in [1] is given as “Non-Toxic”.

With `C=CC(C)(C)c1cc(O)c2oc3c(O)cccc3c(=O)c2c1O`, the result in series [3], in series [6], in series [9], in series [10], in [14] and in series [15] was Active. For the same molecule, the outcome in [16] and in series [17] was Active. The Activity result in series [4] is “Non-Toxic”; in [7] it was “Dose-dependent effect”; in series [2], 208.4%; in [1] it was “Non-Toxic”. For the same molecule, the outcome in series [5], in [8], in series [11], in series [12] and in [13] was inactive.

For the molecule `COc1c(O)c(CC=C(C)C)cc2c(=O)c3c(O)ccc(O)c3oc12`, the Activity entry in [1] is listed as “Non-Toxic”.

`CC(C)=CCc1c(O)cc(O)c2c(=O)c3cccc(O)c3oc12`: the Activity entry in series [1] is reported as “Non-Toxic”.

Regarding `COc1c(O)ccc2oc3c(O)cccc3c(=O)c12`, the Activity result in [1] is recorded as “Non-Toxic”.

For `CC(C)=CCc1c(O)c(O)c2oc3c(CC=C(C)C)c(O)cc(O)c3c(=O)c2c1CC=C(C)C`, the Activity result in [1] was “Non-Toxic”.

As to `O=c1c2cccc(O)c2oc2ccc(O)c(O)c12`, in series [1], the Activity result is on record as “Non-Toxic”.

Regarding `CC(C)=CCc1c(O)c(O)c2oc3c(O)ccc(O)c3c(=O)c2c1CC=C(C)C`, the Activity entry in series [1] was “Non-Toxic”.

In the case of `CC1(C)C=Cc2c(cc3oc4c(O)cccc4c(=O)c3c2O)O1`, the Activity result in series [1] is listed as “Non-Toxic”.

As to `CN(C)C(=N)NC(=N)N` [METFORMIN], the Activity in [18] is on record as 167.2%. Further, in [19], the outcome was Active.

On to `C=CC(C)(C)c1cc(O)c(O)c2c(=O)c3cc(CC=C(C)C)c(O)c(O)c3oc12`, for which the Activity result in series [4] is on record as “Non-Toxic”; in series [2], 166.2%; in [1], “Non-Toxic”. Besides, the outcome in [20], in [5], in series [6], in series [9], in series [10] and in series [21] was Active. Also, the outcome in series [14], in [15] and in [17] was Active. Also, the outcome in series [8], in [11], in series [12], in series [13] and in series [22] was inactive.

For the molecule `CC(C)=CCC/C(C)=C/Cc1cc2c(=O)c3c(O)cc(O)cc3oc2c(O)c1O`, the outcome in series [2] was inactive. Further, in series [1], the Activity entry was “Non-Toxic”.

Take `COc1c(O)ccc2c(=O)c3c(O)ccc(OC)c3oc12`: in series [1], the Activity result is “Non-Toxic”.

For `CC(C)=CCc1cc(O)c(O)c2oc3cc(O)cc(O)c3c(=O)c12`, the outcome in series [2] was inactive. Also, the Activity entry in series [1] is on record as “Non-Toxic”.

The values are drawn from ChEMBL document CHEMBL4177686, “Depsidone and xanthones from Garcinia xanthochymus with hypoglycemic activity and the mechanism of promoting glucose uptake in L6 myotubes” (Bioorg Med Chem, 2017).
